Assay [1] concerns the target T1, Muscarinic acetylcholine receptor M1 (Rattus norvegicus, UniProt P08482).
T1 sequence (P08482 whole entry): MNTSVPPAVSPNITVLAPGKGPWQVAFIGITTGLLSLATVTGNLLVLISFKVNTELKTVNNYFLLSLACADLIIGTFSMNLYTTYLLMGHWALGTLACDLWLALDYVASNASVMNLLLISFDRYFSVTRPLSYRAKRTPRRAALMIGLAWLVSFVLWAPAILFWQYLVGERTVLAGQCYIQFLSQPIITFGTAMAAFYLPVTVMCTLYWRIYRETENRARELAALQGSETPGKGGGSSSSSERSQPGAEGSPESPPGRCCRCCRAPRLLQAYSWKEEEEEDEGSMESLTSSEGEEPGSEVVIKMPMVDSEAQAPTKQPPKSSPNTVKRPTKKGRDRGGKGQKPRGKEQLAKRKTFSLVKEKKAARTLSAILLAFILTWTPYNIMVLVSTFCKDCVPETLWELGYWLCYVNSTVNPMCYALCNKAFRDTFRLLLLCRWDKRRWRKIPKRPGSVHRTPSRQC

Assay [2] deals with T2, Muscarinic acetylcholine receptor M2 (Rattus norvegicus, UniProt P10980).
T2 sequence (P10980 whole entry): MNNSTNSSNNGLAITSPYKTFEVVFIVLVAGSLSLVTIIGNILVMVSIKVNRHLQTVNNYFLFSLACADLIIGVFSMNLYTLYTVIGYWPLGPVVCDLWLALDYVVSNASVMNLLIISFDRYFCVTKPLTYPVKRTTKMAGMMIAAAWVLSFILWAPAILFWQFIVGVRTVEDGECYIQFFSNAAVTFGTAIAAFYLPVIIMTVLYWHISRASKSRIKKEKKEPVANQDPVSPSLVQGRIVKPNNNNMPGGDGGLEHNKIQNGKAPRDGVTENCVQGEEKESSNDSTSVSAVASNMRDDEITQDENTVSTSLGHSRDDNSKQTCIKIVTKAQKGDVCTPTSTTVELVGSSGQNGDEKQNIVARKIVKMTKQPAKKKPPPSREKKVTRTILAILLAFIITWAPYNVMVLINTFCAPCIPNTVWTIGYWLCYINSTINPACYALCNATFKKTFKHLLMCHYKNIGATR

Broadly, the Ki is the equilibrium dissociation constant of an inhibitor or competing ligand from its target. Low values mean tighter binding, high ones weaker binding. `O[Si](CCCN1CCCCC1)(c1ccccc1)C1CCCCC1` (stereo not drawn) [HHSiD] gave an inhibitory constant (Ki) in assay [1] of 14.8 nM.

`CCN(CC)CC1CCCCN1CC(=O)N1c2ccccc2C(=O)Nc2cccnc21` (stereo not drawn) [(AF-DX 116) 11-[2-(2-Diethylaminomethyl-piperidin-1-yl)-acetyl]-5,11-dihydro-benzo[e]pyrido[3,2-b][1,4]diazepin-6-one]: the Ki in assay [2] came out at 33.9 nM; in assay [1] it was 180 nM.

(Values after BindingDB's records for PubMed 2547939 (Abbott Laboratories, 1989).)
